Where “and” joins values, the source holds several entries; their conditions need not be identical. Equal values may be shown once. Inconclusive results and toxic doses are left out. No stated cut-off is given here; in the data, active means T/C of 150% or more; inactive means T/C below 125%.
Test system: L1210 leukemia ip in BDF1 mice, survival T/C
Experiment: NCI In Vivo Anticancer Drug Screen. Data for tumor model L1210 Leukemia (intraperitoneal) in B6D2F1 (BDF1) mice
Conditions: endpoint: mean survival time, schedule: Q01DX Z (ip), vehicle: saline, higher = longer survival
Method in brief: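 Ratio derived from survival: compound-dosed mice over vehicle-dosed mice, all bearing a transplantable tumor.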

Measured: T/C

CCC1=C(c2ccc(OC)cc2)CCC(C(=O)O)C1C (stereo not drawn)
inactive: dose: 6.0 mg/kg/injection 100 % of control | dose: 12.0 mg/kg/injection 96 % of control | dose: 25.0 mg/kg/injection 102 % of control | dose: 50.0 mg/kg/injection 100 % of control | dose: 100.0 mg/kg/injection 102 % of control | dose: 200.0 mg/kg/injection 100 % of control | dose: 400.0 mg/kg/injection 110 % of control | dose: 800.0 mg/kg/injection 98 % of control and 120 % of control

From PubChem BioAssay AID248 (DTP/NCI, 2004)
